Results published in ChEMBL document CHEMBL1136557, “2-Phenylspiroindenes: a novel class of selective estrogen receptor modulators (SERMs)” (Bioorg Med Chem Lett, 2003).

How the values were obtained:
[1] = biological target: Estrogen receptor beta (Rattus norvegicus, UniProt Q62986); test: Binding affinity foor Rat Estrogen receptor-beta
[2] = biological target: T1, Estrogen receptor (Homo sapiens, UniProt P03372)
T1 sequence (P03372 whole entry): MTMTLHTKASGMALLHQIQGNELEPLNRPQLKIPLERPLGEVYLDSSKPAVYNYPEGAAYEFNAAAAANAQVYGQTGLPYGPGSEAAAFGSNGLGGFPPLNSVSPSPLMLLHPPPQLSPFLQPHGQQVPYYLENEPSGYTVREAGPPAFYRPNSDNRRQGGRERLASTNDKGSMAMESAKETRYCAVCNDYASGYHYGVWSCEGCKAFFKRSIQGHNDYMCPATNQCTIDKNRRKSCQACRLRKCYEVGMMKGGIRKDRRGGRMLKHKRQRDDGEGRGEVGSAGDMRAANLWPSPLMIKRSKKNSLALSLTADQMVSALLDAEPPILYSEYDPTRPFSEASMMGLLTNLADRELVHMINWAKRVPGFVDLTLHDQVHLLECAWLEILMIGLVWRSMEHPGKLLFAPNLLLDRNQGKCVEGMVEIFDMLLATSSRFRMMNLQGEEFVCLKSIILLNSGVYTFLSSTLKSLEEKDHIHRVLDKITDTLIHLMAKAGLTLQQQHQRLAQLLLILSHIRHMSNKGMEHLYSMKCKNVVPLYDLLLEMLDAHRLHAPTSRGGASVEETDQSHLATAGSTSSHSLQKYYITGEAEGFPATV
Description: Binding affinity for Human Estrogen receptor-alpha

[3] = biological target: Estrogen receptor beta (Homo sapiens, UniProt Q92731)
Description: Binding affinity for Human Estrogen receptor-beta

[4] = biological target: T2, Estrogen receptor (Rattus norvegicus, UniProt P06211); test: Binding affinity for Rat Estrogen receptor-alpha
T2 sequence (P06211 whole entry): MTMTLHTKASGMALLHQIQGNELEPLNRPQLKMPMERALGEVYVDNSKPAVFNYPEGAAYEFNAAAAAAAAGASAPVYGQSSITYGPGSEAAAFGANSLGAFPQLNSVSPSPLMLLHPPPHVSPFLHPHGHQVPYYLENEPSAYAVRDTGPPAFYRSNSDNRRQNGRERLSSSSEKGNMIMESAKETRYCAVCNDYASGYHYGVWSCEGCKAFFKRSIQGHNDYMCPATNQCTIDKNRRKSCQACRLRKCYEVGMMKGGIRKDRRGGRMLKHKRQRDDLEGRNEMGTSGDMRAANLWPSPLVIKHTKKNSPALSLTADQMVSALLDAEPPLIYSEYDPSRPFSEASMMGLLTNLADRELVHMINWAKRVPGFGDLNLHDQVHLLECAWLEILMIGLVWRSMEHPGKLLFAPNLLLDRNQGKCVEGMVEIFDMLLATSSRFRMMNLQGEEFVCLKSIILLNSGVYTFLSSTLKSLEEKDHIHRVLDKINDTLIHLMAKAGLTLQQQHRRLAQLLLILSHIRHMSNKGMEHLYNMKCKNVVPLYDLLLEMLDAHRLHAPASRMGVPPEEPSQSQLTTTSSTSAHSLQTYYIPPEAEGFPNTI

Chain of Estrogen receptor beta (Rattus norvegicus, UniProt Q62986) (Q62986 whole entry): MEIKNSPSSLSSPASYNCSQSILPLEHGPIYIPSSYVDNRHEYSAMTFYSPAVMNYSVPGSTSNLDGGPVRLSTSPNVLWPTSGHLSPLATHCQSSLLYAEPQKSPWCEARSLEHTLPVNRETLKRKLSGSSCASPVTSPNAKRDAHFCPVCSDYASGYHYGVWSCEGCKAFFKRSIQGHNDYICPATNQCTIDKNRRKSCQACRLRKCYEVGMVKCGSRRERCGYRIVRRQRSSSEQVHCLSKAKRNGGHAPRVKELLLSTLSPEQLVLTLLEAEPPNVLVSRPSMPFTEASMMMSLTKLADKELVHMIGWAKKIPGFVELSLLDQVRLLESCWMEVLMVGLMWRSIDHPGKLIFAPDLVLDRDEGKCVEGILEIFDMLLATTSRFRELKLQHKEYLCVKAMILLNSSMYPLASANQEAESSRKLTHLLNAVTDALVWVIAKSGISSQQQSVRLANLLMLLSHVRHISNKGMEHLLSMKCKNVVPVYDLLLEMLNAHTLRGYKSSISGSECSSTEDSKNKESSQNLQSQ
Chain of Estrogen receptor beta (Homo sapiens, UniProt Q92731) (Q92731 whole entry): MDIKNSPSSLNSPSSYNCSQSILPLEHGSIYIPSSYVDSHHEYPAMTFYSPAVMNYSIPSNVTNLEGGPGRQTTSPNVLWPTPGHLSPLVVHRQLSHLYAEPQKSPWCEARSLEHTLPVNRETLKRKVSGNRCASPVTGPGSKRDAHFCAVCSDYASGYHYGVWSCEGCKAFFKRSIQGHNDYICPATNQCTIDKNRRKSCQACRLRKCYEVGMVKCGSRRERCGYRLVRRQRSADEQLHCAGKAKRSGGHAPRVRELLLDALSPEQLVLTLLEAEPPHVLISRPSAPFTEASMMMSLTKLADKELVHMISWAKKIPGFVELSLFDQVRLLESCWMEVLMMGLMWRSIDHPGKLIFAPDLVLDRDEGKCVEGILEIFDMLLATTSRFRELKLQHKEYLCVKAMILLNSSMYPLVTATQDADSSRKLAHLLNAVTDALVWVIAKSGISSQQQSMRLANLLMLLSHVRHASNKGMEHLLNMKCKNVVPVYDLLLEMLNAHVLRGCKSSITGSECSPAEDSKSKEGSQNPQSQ

Row | SMILES | IC50 [1] [nM] | IC50 [2] [nM] | IC50 [3] [nM] | IC50 [4] [nM]
1 | Oc1ccc(C2=Cc3cc(O)ccc3C23Cc2ccc(OCCN4CCCCC4)cc2C3)cc1 (centres undefined) | 2.7 | 1 | 1.9 | 1.7
2 | C1=C(c2ccccc2)C2(Cc3ccccc3C2)c2ccccc21 | > 10000 | > 10000 | > 10000 | > 10000
3 | CC1=C(c2ccc(O)cc2)C2(Cc3ccccc3C2)c2ccc(O)cc21 | 1.2 | 19 | 5.9 | 2.2

Second part, the compound after the results:

Row | IC50 [1] [nM] | IC50 [2] [nM] | IC50 [3] [nM] | IC50 [4] [nM] | SMILES
4 | 1.1 | 4.3 | 2.1 | – | Oc1ccc(C2=Cc3cc(O)ccc3C23Cc2ccccc2C3)cc1
5 | 29 | 28 | 23 | 34 | Oc1cccc(C2=Cc3cc(O)ccc3C23Cc2ccccc2C3)c1
6 | – | 24 | 21 | – | Oc1ccc2c(c1)C=C(c1ccccc1)C21Cc2ccccc2C1
7 | 1070 | 58 | 429 | 114 | Oc1ccc2c(c1)CC1(C2)C(c2ccccc2)=Cc2ccccc21 (centres undefined)
8 | 15 | 31 | 12 | 16 | Oc1cccc(C2=Cc3ccc(O)cc3C23Cc2ccccc2C3)c1
